These compounds were tested against T1, recombinant human Syk (GST-hSyk fusion protein) (Homo sapiens, UniProt P43405) (assay: Homogeneous Time-Resolved Fluorescence (HTRF) assay for the recombinant human Syk enzyme). Conditions: 10-dose titration, 25 μM ATP; read-out: rhSYK IC50.
T1 construct: purchased Carna Biosciences 08-176
Assay type: biochemical
How it was run: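 IC50 came from a four-parameter fit over ten doses, 10 μM to 0.508 nM, with HTRF read-out (Eu-anti-pTyr antibody, SA-APC, EDTA stop, 30 min). The enzyme, 5 pM GST-hSyk, met compound for 10 min, then phosphorylated 250 nM biotin-peptide with 25 μM ATP and 5 mM Mg for 45 min at room temperature, pH 7.5.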

Row | Structure (SMILES) | IC50 [nM]
1 | Cc1cc(Nc2nccc(C(F)F)n2)cc(-c2cnn(C3CCC(O)C3(C)O)c2)c1 (stereo not shown) [Example 22.14, 5-[4-(3-{[4-(difluoromethyl)pyrimidin-2-yl]amino}-5-methylphenyl)-1H-pyrazol-1-yl]-1-methylcyclopentane-1,2-diol] | 5.8
2 | Cc1cc(Nc2nccc(C)n2)cc(-c2cnn(C3CCCC(O)C3O)c2)c1 (stereo not shown) [Example 10.9, 3-(4-{3-methyl-5-[(4-methylpyrimidin-2-yl)amino]phenyl}-1H-pyrazol-1-yl)cyclohexane-1,2-diol] | 4.8
3 | Cc1cc(Nc2nccc(C(F)F)n2)cc(-c2cnn(CC3(O)CCC3)c2)c1 [Example 29.1, 1-((4-(3-((4-(Difluoromethyl)pyrimidin-2-yl)amino)-5-methylphenyl)-1H-pyrazol-1-yl)methyl)cyclobutanol] | 2
4 | Cc1cc(Nc2nccc(C(F)F)n2)cc(-c2cnn(C3CCCC(O)C3O)c2)c1 (single isomer, unassigned) [Example 10.5, 3-[4-(3-{[4-(difluoromethyl)pyrimidin-2-yl]amino}-5-methylphenyl)-1H-pyrazol-1-yl]cyclohexane-1,2-diol] | 5.24

The next lines start with the values.

Row | IC50 [nM] | Structure (SMILES)
5 | 10.7 | Cc1cc(Nc2nccc(C(F)(F)F)n2)cc(-c2cnn(C(C)C)c2)c1 [Example 13.1, N-(3-(1-isopropyl-1H-pyrazol-4-yl)-5-methylphenyl)-4-(trifluoromethyl)-pyrimidin-2-amine]
6 | 10.1 | Cc1cc(Nc2nccc(C(F)(F)F)n2)cc(-c2cnn(C3CCNC(=O)CC3)c2)c1 (single isomer, unassigned) [14.1 (enantiomer 2)]

Same assay, conditions: IC50 class; 10-dose titration, 25 μM ATP; read-out: rhSYK Activity

Row | Structure (SMILES) | IC50 [nM]
7 | Cc1cc(Nc2cc(C(F)(F)F)ccn2)nc(-c2cnn(CC3CNC(=O)O3)c2)c1 (stereo not shown) [Example 1.28, 5-{[4-(4-methyl-6-{[4-(trifluoromethyl)pyridin-2-yl]amino}pyridin-2-yl)-1H-pyrazol-1-yl]methyl}-1,3-oxazolidin-2-one] | ≤ 100
8 | Cc1cc(Nc2ncc(Cl)c(C)n2)cc(-c2cnn(CC3CNC(=O)O3)c2)c1 (stereo not shown) [Example 2.26, 5-[(4-{3-[(5-chloro-4-methylpyrimidin-2-yl)amino]-5-methylphenyl}-1H-pyrazol-1-yl)methyl]-1,3-oxazolidin-2-one] | ≤ 100
9 | COc1ccnc(Nc2cc(C)cc(-c3cnn(C[C@H](O)C(N)=O)c3)c2)n1 [Example 6.4, (2S)-2-hydroxy-3-(4-{3-[(4-methoxypyrimidin-2-yl)amino]-5-methylphenyl}-1H-pyrazol-1-yl)propanamide] | ≤ 100
10 | Cc1cc(Nc2cc(C(F)(F)F)ccn2)nc(-c2cnn(CC(C)(O)CO)c2)c1 (stereo not shown) [Example 21.4, 2-methyl-3-[4-(4-methyl-6-{[4-(trifluoromethyl)pyridin-2-yl]amino}pyridin-2-yl)-1H-pyrazol-1-yl]propane-1,2-diol] | ≤ 100
11 | Cc1cc(Nc2nccc(C(C)(F)F)n2)cc(-c2cnn(CC3CNC(=O)O3)c2)c1 (stereo not shown) [Example 3.125, 5-{[4-(3-{[4-(1,1-difluoroethyl)pyrimidin-2-yl]amino}-5-methylphenyl)-1H-pyrazol-1-yl]methyl}-1,3-oxazolidin-2-one] | ≤ 100
12 | Cc1cc(Nc2nccc(C(F)F)n2)cc(-c2cnn(CC3CC(=O)NC3C)c2)c1 (stereo not shown) [Example 2.76, 4-{[4-(3-{[4-(difluoromethyl)pyrimidin-2-yl]amino}-5-methylphenyl)-1H-pyrazol-1-yl]methyl}-5-methylpyrrolidin-2-one] | ≤ 100
13 | CCOC(=O)CCn1cc(-c2cc(C)cc(Nc3cc(C(F)(F)F)ccn3)n2)cn1 [Example 1.16, ethyl 3-[4-(4-methyl-6-{[4-(trifluoromethyl)pyridin-2-yl]amino}pyridin-2-yl)-1H-pyrazol-1-yl]propanoate] | ≤ 100
14 | Cc1cc(Nc2nccc(C(F)(F)F)n2)cc(-c2cnn(C[C@@H](O)C(=O)O)c2)n1 [Example 11.20, (2R)-2-hydroxy-3-[4-(6-methyl-4-{[4-(trifluoro-methyl)pyrimidin-2-yl]amino}pyridin-2-yl)-1H-pyrazol-1-yl]propanoic acid] | ≤ 100
15 | Cc1cc(Nc2nccc(C)n2)cc(-c2cnn(CC3(O)CCC3)c2)c1 [Example 29.5, 1-[(4-{3-methyl-5-[(4-methylpyrimidin-2-yl)amino]phenyl}-1H-pyrazol-1-yl)methyl}cyclobutanol] | ≤ 100
16 | Cc1cc(Nc2nccc(C(F)F)n2)cc(-c2cnn(C3CCC(O)C3(C)O)c2)c1 (stereo not shown) [Example 22.14, 5-[4-(3-{[4-(difluoromethyl)pyrimidin-2-yl]amino}-5-methylphenyl)-1H-pyrazol-1-yl]-1-methylcyclopentane-1,2-diol] | ≤ 100
17 | Cc1cc(Nc2nccc(C)n2)cc(-c2cnn(C3CCCC(O)C3O)c2)c1 (stereo not shown) [Example 10.9, 3-(4-{3-methyl-5-[(4-methylpyrimidin-2-yl)amino]phenyl}-1H-pyrazol-1-yl)cyclohexane-1,2-diol] | ≤ 100
18 | Cc1cc(Nc2nccc(C(F)F)n2)cc(-c2cnn(CC(O)CC3(O)CCCCC3)c2)c1 (stereo not shown) [Example 5.27, 1-{3-[4-(3-{[4-(difluoromethyl)pyrimidin-2-yl]amino}-5-methylphenyl)-1H-pyrazol-1-yl]-2-hydroxypropyl}cyclohexanol] | ≤ 100
19 | Cc1cc(Nc2nccc(C(F)F)n2)cc(-c2cnn(CC3CNC(=O)O3)c2)c1 (stereo not shown) [Example 2.64, 5-{[4-(3-{[4-(difluoromethyl)pyrimidin-2-yl]amino}-5-methylphenyl)-1H-pyrazol-1-yl]methyl}-1,3-oxazolidin-2-one] | ≤ 100
20 | Cc1cc(Nc2nccc(C(F)(F)F)n2)cc(-c2cnn(CC3CN(C)C(=O)O3)c2)c1 (stereo not shown) [Example 3.46] | ≤ 100
21 | Cc1ccnc(Nc2cc(C)nc(-c3cnn(C[C@@H](O)C(=O)O)c3)n2)c1 [Example 11.19, (2R)-2-hydroxy-3-(4-{4-methyl-6-[(4-methyl-pyridin-2-yl)amino]-pyrimidin-2-yl}-1H-pyrazol-1-yl)propanoic acid] | 100 to 1000
22 | Cc1cc(Nc2nccc(C(F)F)n2)cc(-c2cnn(C3CCCC(O)C3O)c2)c1 (single isomer, unassigned) [Example 10.5, 3-[4-(3-{[4-(difluoromethyl)pyrimidin-2-yl]amino}-5-methylphenyl)-1H-pyrazol-1-yl]cyclohexane-1,2-diol] | ≤ 100
23 | Cc1cc(Nc2ncc(F)c(C(F)F)n2)cc(-c2cnn(CC(C)(O)CC#N)c2)c1 (stereo not shown) [Example 20.5, 4-[4-(3-{[4-(difluoromethyl)-5-fluoropyrimidin-2-yl]amino}-5-methylphenyl)-1H-pyrazol-1-yl]-3-hydroxy-3-methylbutanenitrile] | ≤ 100
24 | COCCCNC(=O)[C@@H](O)Cn1cc(-c2cc(C)cc(Nc3nccc(C(F)(F)F)n3)c2)cn1 [Example 6.12, (2S)-2-hydroxy-N-(3-methoxypropyl)-3-[4-(3-methyl-5-{[4-(trifluorometh-yl)pyrimidin-2-yl]amino}phenyl)-1H-pyrazol-1-yl]propanamide] | ≤ 100
25 | Cc1cc(Nc2ncc(F)c(C(F)F)n2)cc(-c2cnn(CC3OC(=O)NC3C)c2)c1 (single isomer, unassigned) [Example 23.20, 5-{[4-(3-{[4-(difluoromethyl)-5-fluoropyrimidin-2-yl]amino}-5-methylphenyl)-1H-pyrazol-1-yl]methyl}-4-methyl-1,3-oxazolidin-2-one] | ≤ 100
26 | COC(=O)NC(C)(C)Cn1cc(-c2cc(C)cc(Nc3nccc(C(F)F)n3)c2)cn1 [Example 27.11, methyl {2-[4-(3-{[4-(difluoromethyl)pyrimidin-2-yl]amino}-5-methylphenyl)-1H-pyrazol-1-yl]-1,1-dimethylethyl}carbamate] | ≤ 100
27 | O=C1NCC(Cn2cc(-c3cccc(Nc4nccc(C(F)(F)F)n4)c3)cn2)O1 (stereo not shown) [Example 2.27, 5-{[4-(3-{[4-(trifluoromethyl)pyrimidin-2-yl]amino}phenyl)-1H-pyrazol-1-yl]methyl}-1,3-oxazolidin-2-one] | ≤ 100

The next lines start with the values.

Row | IC50 [nM] | Structure (SMILES)
28 | ≤ 100 | Cc1cc(Nc2nccc(C(F)(F)F)n2)cc(-c2cnn(C[C@H](O)C(N)=O)c2)c1 [Example 7.4, (2S)-2-hydroxy-3-[4-(3-methyl-5-{[4-(trifluorometh-yl)pyrimidin-2-yl]amino}-phenyl)-1H-pyrazol-1-yl]propanamide]
29 | ≤ 100 | CC(=O)Cn1cc(-c2cc(C)cc(Nc3nccc(C(F)(F)F)n3)c2)cn1 [Example 3.22, 1-[4-(3-methyl-5-{[4-(trifluoromethyl)pyrimidin-2-yl]amino}phenyl)-1H-pyrazol-1-yl]propan-2-one]
30 | ≤ 100 | Cc1cc(Nc2nccc(C(F)(F)F)n2)cc(-c2cnn(C(C)C)c2)c1 [Example 13.1, N-(3-(1-isopropyl-1H-pyrazol-4-yl)-5-methylphenyl)-4-(trifluoromethyl)-pyrimidin-2-amine]
31 | ≤ 100 | Cc1cc(Nc2nccc(C(F)(F)F)n2)cc(-c2cnn(C[C@@H](O)C(N)=O)c2)c1 [Example 7.3, (2R)-2-hydroxy-3-[4-(3-methyl-5-{[4-(trifluorometh-yl)pyrimidin-2-yl]amino}-phenyl)-1H-pyrazol-1-yl]propanamide]
32 | ≤ 100 | Cc1cc(Nc2nccc(C(F)(F)F)n2)cc(-c2cnn(CCO)c2)c1 [Example 3.36, 2-[4-(3-methyl-5-{[4-(trifluoromethyl)-pyrimidin-2-yl]amino}-phenyl)-1H-pyrazol-1-yl]ethanol]
33 | ≤ 100 | Cc1cc(Nc2nccc(C(F)(F)F)n2)cc(-c2cnn(CC3CCCO3)c2)c1 (stereo not shown) [Example 13.3, N-{3-methyl-5-[1-(tetra-hydrofuran-2-ylmethyl)-1H-pyrazol-4-yl]phenyl}-4-(trifluoro-methyl)-pyrimidin-2-amine]
34 | ≤ 100 | Cc1cc(Nc2nccc(C(F)(F)F)n2)cc(-c2cnn(CC3COCCC3O)c2)c1 (stereo not shown) [Example 12.12, 3-{[4-(3-methyl-5-{[4-(trifluoromethyl)pyrimi-din-2-yl]amino}phenyl)-1H-pyrazol-1-yl]methyl}-tetrahydro-2H-pyran-4-ol]
35 | ≤ 100 | Cc1cc(Nc2nccc(C(F)(F)F)n2)cc(-c2cnn(C3CCC(C(=O)O)CC3)c2)c1 (stereo not shown) [Example 1.56, 4-[4-(3-methyl-5-{[4-(trifluoromethyl)pyrimidin-2-yl]amino}phenyl)-1H-pyrazol-1-yl]cyclohexanecarboxylic acid]
36 | ≤ 100 | Cc1cc(Nc2nccc(C(F)(F)F)n2)cc(-c2cnn(C3CCC(C(=O)O)CC3)c2)c1 (stereo not shown) [Example 1.57, 4-[4-(3-methyl-5-{[4-(trifluoromethyl)pyrimidin-2-yl]amino}phenyl)-1H-pyrazol-1-yl]cyclohexanecarboxylic acid]
37 | ≤ 100 | CC(=O)N1CCN(C(=O)Cn2cc(-c3cc(C)cc(Nc4nccc(C(F)(F)F)n4)c3)cn2)CC1 [Example 3.7, N-(3-{1-[2-(4-acetylpiperazin-1-yl)-2-oxoethyl]-1H-pyrazol-4-yl}-5-methylphenyl)-4-(trifluoromethyl)-pyrimidin-2-amine]

From patent US9242984B2, “Pyrazolyl derivatives as Syk inhibitors” (Merck Sharp & Dohme Corp., priority 2012, dated 2016)
